Data: ChEMBL document CHEMBL5126654, “Cyclopiazonic Acid and Okaramine Analogues, Including Chlorinated Compounds, from Chrysosporium undulatum YT-1” (2022)
≈ marks a conversion by molar mass, not a printed value. Values belong to the compound of their own block, whether it stands above or below them. Calls of active or inactive are those of the source. The calls are words filed in the database; no cut-off is given here.

Columns and labels:
[1] = test system: Bombyx mori; assay: Insecticidal activity against third instar larvae of Bombyx mori (silkworm) measured after 24 hrs; format: functional
[2] = test system: Helicoverpa armigera; assay: Insecticidal activity against third instar larvae of Helicoverpa armigera (cotton bollworms) measured after 24 hrs; format: functional
[3] = test system: Bacillus subtilis; assay: Antibacterial activity against Bacillus subtilis measured after 24 hrs by agar diffusion method; format: functional
[4] = test system: PC12D; assay: Neuroprotective activity in rat PC12 cells assessed as reduction in 6-OHDA-induced cell death at 40 uM pretreated for 30 mins followed by 6-OHDA stimulation and measured after 24 hrs by MTT assay; format: functional, cell-based; conditions: time 24.5 hrs

SMILES: CO[C@@H]1[C@]2(O)c3cccc(O)c3N3C(C)(C)[C@H](C)[C@]32N2C(=O)/C3=C/c4c([nH]c5cc(Cl)ccc45)C(C)(C)/C=C\N3C(=O)[C@]12O
LD50 [1]: 7.56 mg/kg | LD50 [2]: 4.13 mg/kg

SMILES: CO[C@@H]1[C@]2(O)c3cc(O)ccc3N3C(C)(C)[C@H](C)[C@]32N2C(=O)/C3=C/c4c([nH]c5ccccc45)C(C)(C)/C=C\N3C(=O)[C@]12O
LD50 [1]: 0.07 mg/kg | LD50 [2]: < 0.01 mg/kg

SMILES: C=C(C)[C@H]1Cc2c(ccc3c2O[C@@H]2COc4cc(OC)c(OC)cc4[C@@H]2C3=O)O1 [ROTENONE]
LD50 [1]: 37.8 mg/kg | LD50 [2]: 5.79 mg/kg

SMILES: CO[C@@H]1[C@]2(O)c3cc(O)ccc3N3C(C)(C)[C@H](CO)[C@]32N2C(=O)/C3=C/c4c([nH]c5ccccc45)C(C)(C)/C=C\N3C(=O)[C@]12O
LD50 [1]: > 100 mg/kg | LD50 [2]: > 100 mg/kg

SMILES: CO[C@@H]1[C@]2(O)c3cc(O)ccc3N3C(C)(C)[C@H](C)[C@]32N2C(=O)/C3=C/c4c([nH]c5cc(Cl)ccc45)C(C)(C)/C=C\N3C(=O)[C@]12O
LD50 [1]: 0.61 mg/kg | LD50 [2]: 0.06 mg/kg

MIC [3]: 6.3 µg/mL (≈ 16.3 µM)
SMILES: C/C(O)=C1\C(=O)[C@@H]2[C@H]3c4c[nH]c5cc(Cl)cc(c45)[C@@H](O)[C@H]3C(C)(C)N2C1=O

SMILES: CO[C@@H]1[C@]2(O)c3cc(O)ccc3N3C(C)(C)[C@H](CO)[C@]32N2C(=O)/C3=C/c4c([nH]c5cc(Cl)ccc45)C(C)(C)/C=C\N3C(=O)[C@]12O
LD50 [1]: > 100 mg/kg | LD50 [2]: > 100 mg/kg

SMILES: CC(NCCc1ccccc1)=C1C(=O)[C@@H]2[C@H]3c4c[nH]c5cccc(c45)C[C@H]3C(C)(C)N2C1=O (mixture of isomers)
Activity [4]: Active
